pIC50: −log10 of the molar value.
Tested on: Plasmodium berghei
Assay: Luciferase/luciferin-expressing antifolate-resistant parasites were used to infect a culture of HepG2 cells that were pre-incubated with compounds. Infected hepatocytes emit light due to the luciferase reaction. Assay results are presented as the percent inhibition of light emission compared to control. […]
Type: functional
Details: sporozoite; for pIC50: read-out: LUCIFERASE INFECTION ASSAY - IC50; for IC90: read-out: LUCIFERASE INFECTION ASSAY - IC90

| SMILES | pIC50 | IC90 |
| --- | --- | --- |
| N#Cc1cc(NC(=O)c2ccc(Cl)cc2)ccc1Sc1ccccc1 | < 5.04 | > 9.04 µM |
| Cc1ccc(C(O)c2nnc(Nc3cc(C(F)(F)F)ccc3F)s2)cc1 (stereo not drawn) | < 5.00 | > 10 µM |
| COc1ccc(-n2ncc(N3CCC(=O)CC3)c(Cl)c2=O)cc1 | < 5.00 | > 9.89 µM |
| OC(c1cc(F)c(F)c(F)c1)c1nnc(Nc2cccc(Cl)c2)s1 (stereo not drawn) | < 5.00 | > 10 µM |
| CNC(=O)c1cccc(-c2cc(C3(CNc4ccccc4F)CC3)ccn2)c1 | < 5.00 | > 10 µM |
| COc1cc(NC(=O)c2csc(C(O)c3cccc(C(F)(F)F)c3)n2)cc(OC)c1OC (stereo not drawn) | < 5.00 | > 10 µM |
| CN(C)c1cccc(NCC2(c3ccnc(-c4ccccc4Cl)c3)CC2)c1 | < 5.00 | > 10 µM |
| COc1cc(-c2ccnc3n[nH]c(-c4ccccc4)c23)cc(OC)c1OC | 5.50 | > 10 µM |
| O=C(Nc1cccc(Cl)c1)c1csc(C(O)C2CCCCC2)n1 (stereo not drawn) | < 5.00 | > 10 µM |
| O=C(Nc1ccc2c(c1)OCO2)c1csc(C(O)c2cccc(C(F)(F)F)c2)n1 (stereo not drawn) | < 5.00 | > 10 µM |
| COc1cccc(-c2ccnc3n[nH]c(-c4cccc(C(F)(F)F)c4)c23)c1 | < 5.00 | > 10 µM |
| COc1ccc(Sc2ccc(NC(=O)c3ccc(F)cc3)cc2C#N)cc1 | < 5.06 | > 8.72 µM |
| CN(C)c1nn(C(=S)Nc2cccc(C(F)(F)F)c2)cc1-c1ccccc1 | < 5.07 | > 8.45 µM |
| COc1cccc(NCC2(c3ccnc(-c4ccccc4Cl)c3)CC2)c1 | < 5.00 | > 10 µM |
| CN(C)C(=O)c1ccc(-c2ccnc3n[nH]c(-c4cccc(Cl)c4)c23)cc1 | 5.33 | > 10 µM |
| COc1cccc(NC(=O)c2csc(C(O)c3cccc(C(F)(F)F)c3)n2)c1 (stereo not drawn) | < 5.00 | > 10 µM |
| N#Cc1cc(NC(=O)c2cccc(Cl)c2)ccc1Sc1cccc(C(F)(F)F)c1 | < 5.12 | > 7.62 µM |

| SMILES | pIC50 | IC90 |
| --- | --- | --- |
| CS(=O)(=O)c1ccc(-c2cc(C3(CNc4cccc(Cl)c4)CC3)ccn2)cc1 | < 5.00 | > 10 µM |
| Cc1ccccc1Sc1ccc(NC(=O)c2ccc(F)cc2)cc1C#N | < 5.04 | > 9.11 µM |
| O=C(NC1CC1)c1csc(C(O)c2cccc(Cl)c2)n1 (stereo not drawn) | 5.47 | > 10 µM |
| COc1cccc(C(=O)Nc2ccc(Sc3cccc(C(F)(F)F)c3)c(C#N)c2)c1 | < 5.11 | > 7.7 µM |
| N#Cc1cc(NC(=O)c2ccc(F)cc2)ccc1Sc1cccc(C(F)(F)F)c1 | 5.51 | > 7.93 µM |
| O=C(/C=C/c1ccco1)Nc1ccc(Cl)cc1Cl | 5.01 | 11.1 µM |
| Fc1ccc(CNCC2(c3ccnc(-c4ccc(Cl)cc4)c3)CC2)cc1F | < 5.00 | > 10 µM |
| O=C(Nc1ccc(Oc2ccccc2)cc1)c1csc(C(O)c2ccccc2)n1 (stereo not drawn) | 5.79 | 7.41 µM |
| O=S(=O)(Cc1cc(N2CCN(c3ccccc3)CC2)nc(-c2ccccn2)n1)c1ccccc1 | < 5.15 | > 7 µM |
| C=C(C)C(=O)Nc1ccc([N+](=O)[O-])cc1Cl | < 4.86 | > 13.7 µM |
| COc1ccc(-c2cc(C3(CNCc4ccc(N(C)C)cc4)CC3)ccn2)cn1 | < 5.00 | > 10 µM |
| O=C(Nc1cccc(F)c1)C1(c2ccnc(Nc3ccc(C(F)(F)F)cc3)c2)CC1 | < 5.00 | > 10 µM |
| [O-][S+](Cc1cc(N2CCCCC2)nc(-c2ccccn2)n1)c1ccc(Cl)cc1 (stereo not drawn) | < 5.10 | > 7.99 µM |
| Clc1ccc(SCc2cc(NCc3ccccc3)nc(-c3cccnc3)n2)cc1 | 5.19 | 7.84 µM |
| O=C(Nc1ccc(F)cc1)c1csc(C(O)c2cccc(Cl)c2)n1 (stereo not drawn) | < 5.00 | > 10 µM |
| OC(c1ccc(Cl)cc1)c1nnc(Nc2cc(C(F)(F)F)ccc2F)s1 (stereo not drawn) | < 5.00 | > 10 µM |
| COc1ccc(Sc2ccc(NC(=O)c3ccc(Cl)cc3Cl)cc2C#N)cc1 | < 5.11 | > 7.69 µM |
